Test results published in publication PMC10693969 (Parasites, Hosts and Diseases, 2023).
Where two headings read alike, the source gives them in different places.

Legend:
[1] = system: murine macrophages J774A.1; conditions: cited from earlier work
[2] = system: Naegleria fowleri trophozoites (Carter NF69 strain, ATCC 30215); assay: In vitro anti-N. fowleri activity, trophozoite viability; format: cell-based; conditions: for SI, sensitivity index (CC50 C6 glial cells / IC50 N. fowleri): ratio CC50 C6 glial cells / IC50 N. fowleri; for antiamoebic activity against N. fowleri (in words): in vitro
[3] = system: A. polyphaga (ATCC-30461) trophozoites; assay: In vitro anti-Acanthamoeba activity, A. polyphaga trophozoite viability; format: cell-based; conditions: for SI, sensitivity index (CC50 C6 glial cells / IC50 A. polyphaga): ratio CC50 C6 glial cells / IC50 A. polyphaga
[4] = Cytotoxicity against C6 glial cells; format: cell-based, rat; conditions: rat, C6 glial cells
[5] = system: C6 rat glial cells (ATCC CCL-107); assay: Cytotoxicity against C6 glial cells; format: cell-based; conditions: C6 glial cells
[6] = system: A. castellanii (ATCC-30868) trophozoites; assay: In vitro anti-Acanthamoeba activity, A. castellanii trophozoite viability; format: cell-based; conditions: for SI, sensitivity index (CC50 C6 glial cells / IC50 A. castellanii): ratio CC50 C6 glial cells / IC50 A. castellanii
[7] = system: A. castellanii trophozoites; conditions: cited from earlier work
[8] = Naegleria fowleri, ATCC30215, 48 h, read-out: N. fowleri (IC50 ±SD, μM), trophozoites, 0–400 μM, 37°C, 48 h, mean±SD of 3 independent experiments
[9] = Acanthamoeba polyphaga, ATCC30461, 48 h, read-out: A. polyphaga (IC50 ±SD, μM), trophozoites, 0–400 μM, 25°C, 48 h, mean±SD of 3 independent experiments
[10] = read-out: A. polyphaga (IC50 ±SD), trophozoites, 0–400 μM, 25°C, 48 h, mean±SD of 3 independent experiments
[11] = Acanthamoeba castellanii, ATCC30868, 48 h, read-out: A. castellanii (IC50 ±SD, μM), trophozoites, 0–400 μM, 25°C, 48 h, mean±SD of 3 independent experiments
[12] = read-out: A. castellanii (IC50 ±SD), trophozoites, 0–400 μM, 25°C, 48 h, mean±SD of 3 independent experiments

SMILES	IC50 [2, 8] [µM]	SI, sensitivity index (CC50 C6 glial cells / IC50 N. fowleri) [2]	antiamoebic activity against N. fowleri (in words) ([2]; trophozoites)	IC50 [3, 9] [µM]	SI, sensitivity index (CC50 C6 glial cells / IC50 A. polyphaga) [3]	IC50 [3, 10] [µM]	CC50 [4] [µM]	cytotoxicity to C6 glial cells (in words) [5]	IC50 [6, 11] [µM]	SI, sensitivity index (CC50 C6 glial cells / IC50 A. castellanii) [6]	IC50 [6, 12] [µM]	toxicity to A. castellanii trophozoites (in words) [7]	other results
O=c1cc(-c2ccc(O)cc2)oc2cc(O)cc(O)c12 [Apigenin, apigenin]	94.65 ± 0.58	2.57	did not show significative anti-N. fowleri activities	< 50	8.58	28.33 ± 0.13	243.1 ± 0.98	did not show significative cytotoxicity	< 50	5.60	43.4 ± 0.8	–	cytotoxicity against murine macrophages J774A.1 (in words) [1]: potential cytotoxicity
COc1ccc2c(c[n+](C)c3c4cc5c(cc4ccc23)OCO5)c1OC [Chelerythrine, chelerythrine chloride]	–	1.39	strong antiamoebic activity	–	–	–	16.4 ± 0.45	potent cytotoxicity	–	–	–	–	IC50 ([2]; Naegleria fowleri, ATCC30215, 48 h, read-out: N. fowleri (IC50 ±SD, μM)): 11.8 ± 1.15 µM; IC50 ([3]; Acanthamoeba polyphaga, ATCC30461, 48 h, read-out: A. polyphaga (IC50 ±SD, μM)): 102 ± 1.4 µM; antiamoebic activity against A. polyphaga (in words) ([3]; trophozoites, in vitro): did not exhibit potential or selective antiamoebic activity; cytotoxicity to C6 glial cells (in words) ([5]; listed as chelerythrine): strong toxicity; IC50 ([6]; Acanthamoeba castellanii, ATCC30868, 48 h, read-out: A. castellanii (IC50 ±SD, μM)): 148.1 ± 1.38 µM; antiamoebic activity against A. castellanii (in words) ([6]; trophozoites, in vitro): did not exhibit potential or selective antiamoebic activity
COc1cc(/C=C/C(O)=C/C(=O)/C=C/c2ccc(O)cc2)ccc1O [Demethoxycurcumin, demethoxycurcumin]	< 30	> 7	–	–	>13.48	21.93 ± 0.18	> 296	–	< 50	>8.19	36.1 ± 0.82	toxic	SI, sensitivity index (CC50 C6 glial cells / IC50 N. fowleri) ([2]; listed as demethoxycurcumin): > 8; IC50 ([2]; read-out: N. fowleri (IC50 ±SD), trophozoites, 0–400 μM, 37°C, 48 h, mean±SD of 3 independent experiments): 27.1 ± 0.35 µM; IC50 ([2]; read-out: N. fowleri (IC50 ±SD), trophozoites, 0–400 μM, 37°C, 48 h, mean±SD of 3 independent experiments, listed as demethoxycurcumin): < 40 µM; SI, sensitivity index (CC50 C6 glial cells / IC50 A. polyphaga) ([3]; listed as demethoxycurcumin): > 8; IC50 ([3]; read-out: A. polyphaga (IC50 ±SD), trophozoites, 0–400 μM, 25°C, 48 h, mean±SD of 3 independent experiments, listed as demethoxycurcumin): < 40 µM; SI, sensitivity index (CC50 C6 glial cells / IC50 A. castellanii) ([6]; listed as demethoxycurcumin): > 8; IC50 ([6]; read-out: A. castellanii (IC50 ±SD), trophozoites, 0–400 μM, 25°C, 48 h, mean±SD of 3 independent experiments, listed as demethoxycurcumin): < 40 µM
Oc1ccc(/C=C/c2cc(O)cc(O)c2)cc1 [Resveratrol, resveratrol]	47.19 ± 0.36	4.68	–	< 50	7.04	31.35 ± 0.08	220.78 ± 0.09	–	< 50	5.52	40.03 ± 0.39	toxic	–
